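All cell lines were grown in 96-well plates and treated with compound for 48 hours. The concentration for 50% growth inhibition is given as GI50. Definition used: TGI = concentration required for complete inhibition of growth.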 Where a SMILES comes first, the peptide text is derived from it. The star is where a group is joined. Boc = CC(C)(C)OC(=O)*; nBu = CCCC*
Columns and labels:
Assay in all cases: NCI tumour cell line growth inhibition, 48 h
SK-MEL-2 melanoma = test system: SK-MEL-2 melanoma
K-562 leukemia = test system: K-562 leukemia
SF-539 CNS = test system: SF-539 CNS
NCI-H23 lung = test system: NCI-H23 lung
KM12 colon = test system: KM12 colon
MCF7 breast = test system: MCF7 breast
HCT-116 colon = test system: HCT-116 colon
ACHN renal = test system: ACHN renal
COLO 205 colon = test system: COLO 205 colon
NCI-H522 lung = test system: NCI-H522 lung
OVCAR-8 ovarian = test system: OVCAR-8 ovarian

Row | Compound | TGI (SK-MEL-2 melanoma) [µM] | TGI (K-562 leukemia) [µM] | TGI (SF-539 CNS) [µM] | TGI (NCI-H23 lung) [µM] | TGI (KM12 colon) [µM] | TGI (MCF7 breast) [µM] | TGI (HCT-116 colon) [µM] | TGI (ACHN renal) [µM] | TGI (COLO 205 colon) [µM] | TGI (NCI-H522 lung) [µM] | TGI (OVCAR-8 ovarian) [µM] | GI50 (SK-MEL-2 melanoma) [µM] | GI50 (SF-539 CNS) [µM] | GI50 (KM12 colon) [µM] | GI50 (NCI-H522 lung) [µM] | GI50 (MCF7 breast) [µM] | GI50 (HCT-116 colon) [µM] | GI50 (ACHN renal) [µM] | GI50 (COLO 205 colon) [µM]
1 | Cc1ccc(-c2cn3c(nc4ccccc43)c(/C=C/c3ccco3)n2)cc1 | 72.9 | > 100 | > 100 | > 100 | > 100 | > 100 | > 100 | > 100 | > 100 | – | – | – | – | – | – | – | – | – | –
2 | CN(CCc1ccccn1)c1ccc2c(c1)C(=O)c1ccccc1-2 | > 100 | > 100 | – | > 100 | > 100 | > 100 | > 100 | > 100 | > 100 | > 100 | > 100 | – | – | – | – | – | – | – | –
3 | O=C1c2c(Br)sc(Br)c2[C@@H](O)[C@H]1O | 32.6 | > 36.8 | 29.3 | 21 | 45.1 | 33 | 32.4 | 33.5 | 28.5 | 3.54 | > 44.4 | – | – | – | – | – | – | – | –
4 | COc1ccc(N2C(=O)C(=O)C3(CCCCC3)C2=O)c2ccccc12 | > 10 | > 10 | > 10 | > 10 | > 10 | > 10 | > 10 | > 10 | > 10 | > 10 | > 10 | – | – | – | – | – | – | – | –
5 | CCCCCCCCCCCCCCCc1nc(=S)[nH][nH]1 | > 100 | > 100 | > 100 | > 100 | > 100 | – | > 100 | > 100 | – | 68.2 | – | – | – | – | – | – | – | – | –
6 | COc1ccc(CCn2cncn2)cc1 | – | > 100 | > 100 | > 100 | > 100 | – | > 100 | > 100 | > 100 | > 100 | – | – | – | – | – | – | – | – | –
7 | COc1ccc(C2C3CCc4ccccc4C3=NN2S(=O)(=O)c2cccc(C(=O)O)c2OC)cc1 (configuration not stated) | 60 | > 100 | 22 | > 100 | > 100 | 6.55 | > 100 | 63.9 | 5.6 | 14.2 | > 100 | – | – | – | – | – | – | – | –
8 | CN1CCC(C(O)(c2ccccc2)c2ccc(Br)cc2)CC1 (configuration not stated) | 30.3 | 35.9 | 32.2 | > 100 | 43.2 | 64.2 | 51.1 | > 100 | 28.7 | 30.4 | > 100 | – | – | – | – | – | – | – | –
9 | N#C/C(=C(/O)CCl)c1nc2ccccc2o1 | 11.6 | 9.36 | 8.74 | 25.4 | 53.3 | 8.59 | 29.2 | – | 3.45 | – | 14.9 | – | – | – | – | – | – | – | –
10 | COC(=O)c1c(O)ccc2c1c1cc3ccccc3c(O)c1n2CCc1ccc(OC)c(OC)c1 | > 100 | > 100 | > 100 | > 100 | > 100 | > 100 | > 100 | > 100 | 30.4 | > 100 | > 100 | – | – | – | – | – | – | – | –
11 | O=P(NCCCO)(OCc1ccccc1)N(CCCl)CCCl (configuration not stated) | > 100 | > 100 | > 100 | > 100 | > 100 | > 100 | > 100 | – | > 100 | > 100 | > 100 | – | – | – | – | – | – | – | –
12 | C/C(C=O)=C/[C@@]1(C)O[C@@H](C)[C@@](C)(O)[C@@H]1O | > 100 | > 100 | > 100 | > 100 | > 100 | > 100 | > 100 | 44.4 | > 100 | 35.5 | 40 | – | – | – | – | – | – | – | –
13 | CC(C)CC(N)C(=O)NC(C(=O)NC(CCCNC(=N)N)C(=O)NC(CS)C(=O)NC1CSCC(C(=O)NC(Cc2ccccc2)C(=O)NC(C(=O)NC(CCCNC(=N)N)C(=O)O)C(C)C)NC(=O)C2CCCN2C(=O)C(CCCCN)NC(=O)C2CCCN2C(=O)C2CCCN2C(=O)C(Cc2ccc(O)cc2)NC(=O)C(CO)NC(=O)C(CCCCN)NC(=O)C(C(C)O)NC(=O)C(Cc2c[nH]c3ccccc23)NC1=O)C(C)C (configuration not stated) | > 25 | > 25 | > 25 | > 25 | > 25 | > 25 | > 25 | > 25 | > 25 | > 25 | > 25 | – | – | – | – | – | – | – | –
14 | CCOc1nc2c(N3CCCC3)nc(N3CCNCC3)nc2nc1NCc1ccccc1 | 3.11 | 2.61 | 2.85 | 3.45 | 3.08 | 2.86 | 2.14 | 4.55 | 1.93 | 2.2 | 4.1 | – | – | – | – | – | – | – | –
15 | CCCCOc1ccc(CC(NC(=O)OC(C)(C)C)C(=O)NC(C)C(=O)NC(Cc2ccccc2)C(=O)NCC(N)=O)cc1 (configuration not stated) (Boc-Y(nBu)AFG-NH2; configuration not given here) | 51 | > 100 | > 100 | > 100 | > 100 | > 100 | > 100 | > 100 | > 100 | > 100 | > 100 | – | – | – | – | – | – | – | –
16 | O=C(Cc1nc2ccccc2[nH]c1=O)c1c[nH]c2ccccc12 | 28.9 | > 100 | 35.2 | > 100 | 58 | > 100 | 56.2 | 22.3 | 28.9 | 50 | 45.9 | – | – | – | – | – | – | – | –
17 | COc1ccc2nc3cc(Cl)ccc3c(NCCCN3CCN(CCCNc4ccc5nnn6c7ccccc7c(=O)c4c56)CC3)c2c1 | > 25 | > 25 | 8.14 | > 25 | > 25 | 7.11 | > 20.2 | – | > 25 | > 23.8 | > 25 | – | – | – | – | – | – | – | –
18 | O=C(Nc1ccccc1)Oc1ccc(C(=S)Nc2ccc(Br)cc2)cc1 | 47.8 | > 100 | 53 | 37.2 | 32.4 | 60.9 | 37.2 | 97.9 | 36.6 | 29.5 | 29.2 | – | – | – | – | – | – | – | –
19 | COc1ccccc1-c1c(C#N)c(N)[nH]c(=S)c1C#N | > 100 | > 100 | > 100 | > 100 | > 100 | > 100 | > 100 | > 100 | > 100 | > 100 | > 100 | – | – | – | – | – | – | – | –
20 | Cc1c(-c2ccccc2)[nH]c2cn[nH]c(=O)c12 | > 100 | > 100 | > 100 | > 100 | > 100 | > 100 | > 100 | > 100 | > 100 | > 100 | > 100 | – | – | – | – | – | – | – | –
21 | CC1(C)OC[C@@H]([C@@]2(COC(c3ccccc3)(c3ccccc3)c3ccccc3)CC=CC(=O)O2)O1 | 31.1 | > 100 | > 100 | > 100 | > 100 | 54.6 | > 100 | > 100 | 50.6 | 40.9 | > 100 | – | – | – | – | – | – | – | –
22 | O=C(O)c1cc2ccccc2c(N=Nc2ccc(S(=O)(=O)Nc3ncccn3)cc2)c1O | > 100 | > 100 | > 100 | – | > 100 | > 100 | > 100 | > 100 | > 100 | > 100 | > 100 | – | – | – | – | – | – | – | –
23 | COc1cc(C2S/C(=C/c3ccccc3)C(=O)N2c2cccc(NC(C)=O)c2)cc(OC)c1OC (configuration not stated) | – | > 100 | – | > 100 | 82 | > 100 | 37.2 | > 100 | 86.6 | 47.1 | > 100 | – | – | – | – | – | – | – | –
24 | Cc1cc(-c2nc3c(F)cccc3s2)ccc1N | > 100 | > 100 | – | > 100 | > 100 | > 100 | > 100 | > 100 | > 100 | > 100 | > 100 | – | – | – | – | – | – | – | –
25 | C=C1C(O)C2(O)OCC34C(CC5C(C)=CC(=O)C(O)C5(C)C23)OC(=O)C(OC(=O)C/C=C/CCCCCCCC)C14 (configuration not stated) | 0.0361 | 0.251 | 0.0372 | 0.0815 | 0.0751 | – | 0.116 | – | 0.0464 | 0.0202 | 0.0241 | – | – | – | – | – | – | – | –
26 | CN(C)c1ccc(-c2ccc(-c3ccc(C(=N)N)cn3)o2)cc1 | 3.65 | – | 2.9 | – | 3.01 | 3.52 | 2.92 | 3.13 | 2.28 | 3.44 | – | 1.96 | 1.54 | 1.43 | 1.84 | 1.61 | 1.47 | 1.75 | 1.04
27 | O=[N+]([O-])c1ccc(N=Nc2c(O)[nH]c3ccccc23)c([N+](=O)[O-])c1 | – | > 100 | 10.2 | 25.8 | > 100 | 80.7 | 49.7 | 19.2 | 71.2 | > 100 | 27.8 | – | – | – | – | – | – | – | –

Source: PubChem BioAssay (NCI)
